Measured values published in patent publication US20020176820A1, “Functional expression of, and assay for, functional cellular receptors in vivo” (The Trustees of Columbia University, priority 1997, published 2002).
Entries after “also recorded” stand apart in the source; their conditions may differ.

Assays:
Format in all cases: cell-based
rat I7 odorant receptor [1] = target: T1, rat I7 odorant receptor (Rattus norvegicus, UniProt P23270); assay: Electro-olfactogram (EOG) recording from AdexCAG-I7-IRES-GFP infected rat olfactory epithelium; conditions: for change of EOG odorant response in I7 virus infected vs uninfected animals: responses normalized to amyl acetate, panel of 74 odorants
T1 construct: expressed in transfected cells; host or cells: rat (Sprague-Dawley) olfactory sensory neurons infected in vivo with recombinant adenovirus AdexCAG-I7-IRES-GFP
T1 sequence (P23270 1-327): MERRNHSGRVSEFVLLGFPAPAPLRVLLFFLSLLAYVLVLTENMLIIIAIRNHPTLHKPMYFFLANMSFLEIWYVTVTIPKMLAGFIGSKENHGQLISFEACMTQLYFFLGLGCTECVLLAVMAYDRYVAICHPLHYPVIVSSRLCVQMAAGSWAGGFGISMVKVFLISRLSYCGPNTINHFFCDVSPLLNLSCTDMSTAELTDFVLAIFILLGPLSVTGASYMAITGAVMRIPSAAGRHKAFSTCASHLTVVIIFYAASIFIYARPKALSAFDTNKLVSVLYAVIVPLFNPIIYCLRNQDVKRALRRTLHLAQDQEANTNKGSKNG
Method: Rats (Sprague-Dawley) of various ages and both sexes were used for these experiments. Under anesthesia (ketamine, 90 mg/kg and xylazine, 10 mg/kg, i.p.), 30 μl of rat Ringer solution (in mM, 135, NaCl; 5, I(Cl; 1, CaCl2; 4, MgCl2; 10, HEPES; pH 7.4) containing the AdexCAG-I7-IRES-GFP at a titer of 3×10^9 pfu/ml, and 0.3% fast green dye was slowly injected through the nostril into the right side of the nasal cavity with a short length of thin plastic tubing. The solution was allowed to remain in the nasal cavity. After recovery, the animals were maintained at room temperature with no other treatment until sacrificed.
(§1) The animal was overdosed with anesthetics (Ketamine and xylazine) and decapitated. The head was cut open sagittally and the septum was removed to expose the medial surface of the olfactory turbinates (44 this reference is hereby incorporated by reference in its entirety). The right half of the head was mounted in a wax dish filled with rat Ringer. The medial surface of turbinates was face up and exposed to the air. A continuous stream of humidified clean air was gently blown on the turbinates through tubing to prevent tissue from drying. The opening of the tubing was 8 mm in diameter and placed approximately 10 mm from the turbinate surface.
Odorant solutions were prepared by diluting a 0.5 M stock in DMSO with water. All odorant chemicals were purchased from Aldrich, except Lyral and Lilial which were the kind gift of IFF and Harmon & Reimer Inc. Three milliliters of the odorant solution were placed in a 10 ml glass test tube and capped with a silicon stopper. The concentration of volatile odorant in the 7 cc airspace was allowed to equilibrate for more than 1 hour. All solutions were used within 8 hours. Two 18 gauge needles provided the input and output ports for the odorant containing vapor above the solution. For stimulation a 100 ms pulse of the odorant vapor at 9 psi was injected into the continuous stream of humidified air. The pulse was controlled by a Picospritzer solenoid controlled valve (General Valve). Amyl acetate was used as the reference odorant to control for the variability in responses between animals and during long recording sessions, and was delivered on every sixth trial of odorant stimulation. Three tubes of amyl acetate at 10^−3 M liquid concentration were used alternately in each experiment. The odorant stimulus pathway was cleaned by air between each stimulus presentation. The minimum interval between two adjacent stimuli was 1 minute.
The EOG recording electrode was an Ag/AgCl wire in a capillary glass pipette filled with rat Ringer solution containing 0.6% agarose. The electrode resistance was between 0.5 and 1 MΩ. The recording pipette was placed on the surface of the olfactory epithelium and connected to a differential amplifier (DP-301, Warner Instrument). Placement of the electrode was determined by visualizing GFP fluorescence with a modified stereomicroscope (Kramer Scientific). The EOG potential was observed on a chart recorder, recorded with a DAT tape recorder, and later transferred to computer. For most experiments two electrodes and two amplifiers were used to record EOGs from two different sites of epithelium simultaneously. All experiments were performed at room temperature (22-25° C.).
Odorants were prepared and applied in the following manner. Three milliliters of each odorant solution at a particular concentration were placed in a 10 ml test tube stoppered with a silicone cap, and left for one hour to allow the concentration of volatile odorant in the 7 cc airspace above the solution to equilibrate. Most of the odorants were prepared at a liquid concentration of 10^−2 M to 10^−3 M depending on their relative volatilities. Concentrations of stimulus produced at the olfactory epithelium could not be known, but the system reliably delivered the same amount of stimulus on each trial as there was little variability between responses to successive pulses of the same odorant. […]

rat I7 odorant receptor [2] = target: T1, rat I7 odorant receptor; assay: Whole-cell patch clamp recording from isolated GFP positive olfactory neurons infected by AdexCAG-I7-IRES-GFP
Method: Whole-cell patch clamp recording was performed on isolated cells with detectable fluorescence (FITC filter). Cell dissociation techniques for olfactory epithelium are described in detail elsewhere (45 this reference is hereby incorporated by reference in its entirety); for these experiments we included only papain treatment and mechanical disruption. Recordings were made with the Axopatch 1D amplifier. […] Data were acquired with the PULSE software (HEKA). Odorants were applied by a constant stream perfusion device (SF77, Warner Instruments) or by pressure pulse. The extracellular solution was the rat Ringer described above. All cells were tested to confirm that they had the normal voltage gated currents before investigating their odorant responses.
The holding potential was −60 mV. The currents varied from 60-250 pA in response to a 50 msec pulse of octanal at approximately 10−4 M, values that are within the range previously reported for rat olfactory neurons (28). […] The odorant induced current reversed around 0 mV.

rat olfactory epithelium = assay: EOG recording from control rat olfactory epithelium (uninfected or infected with GFP-only adenovirus)
Excerpt: as §1
Odorant solutions were prepared by diluting a 0.5 M stock in DMSO with water. All odorant chemicals were purchased from Aldrich, except Lyral and Lilial which were the kind gift of IFF and Harmon & Reimer Inc. Three milliliters of the odorant solution were placed in a 10 ml glass test tube and capped with a silicon stopper. […]
The EOG recording electrode was an Ag/AgCl wire in a capillary glass pipette filled with rat Ringer solution containing 0.6% agarose. […] Placement of the electrode was determined by visualizing GFP fluorescence with a modified stereomicroscope (Kramer Scientific). The EOG potential was observed on a chart recorder, recorded with a DAT tape recorder, and later transferred to computer. […]

`CCCCCCCCCC=O` [decyl aldehyde] was tested, and the “change of EOG odorant response in I7 virus infected vs uninfected animals” value (“change of EOG odorant response” below) (rat I7 odorant receptor [1]) was “increased odorant response”.
`CCCCCCC=O` [heptaldehyde] was tested, and the “change of EOG odorant response” value (rat I7 odorant receptor [1]) was “increased odorant response”.
For `CCCCCC=O` [hexaldehyde], the “change of EOG odorant response” value (rat I7 odorant receptor [1]) was “not”.
`CCCCCCCCC=O` [nonyl aldehyde] was tested, and the “change of EOG odorant response” value (rat I7 odorant receptor [1]) was “increased odorant response”.
For `CCCCCCCC=O` [octyl aldehyde], the “reversal potential of odorant induced current” value (rat I7 odorant receptor [2]) was “around 0 mV”, the “latency of odorant induced current” value (rat I7 odorant receptor [2]; 50 msec pulse at approximately 10−4 M) was 100 to 250 ms and the odorant induced current (rat I7 odorant receptor [2]; 50 msec pulse at approximately 10−4 M, holding potential −60 mV) was 60-250 pA. The “cells with odorant induced current” value (rat I7 odorant receptor [2]; isolated GFP positive neurons) was 5 of 5, the “EOG response in animals infected with adenovirus containing only the GFP gene” value (rat olfactory epithelium; GFP-only adenovirus, same CAG promoter, compared with uninfected animals) was “not different from uninfected animals” and the “response ratio of octyl aldehyde to amyl acetate” value (rat olfactory epithelium; normal (uninfected) animals, 5×10^−5 M in solution) was 1. For the same molecule, the “difference in response magnitude (octyl aldehyde compared to amyl acetate) in infected versus control epithelia” value (rat I7 odorant receptor [1]; dose-response at various concentrations, FIG. 5c) was ≤ 7 fold, the “relative EOG amplitude after moving electrode from high fluorescence to regions with little or no GFP expression” value (rat I7 odorant receptor [1]; infected animals) was “significantly reduced” and the “response ratio of octyl aldehyde to amyl acetate” value (rat I7 odorant receptor [1]; infected animals, odorant concentration in solution 5×10^−5 M) was 7 times. The “EOG response in animals with lower infection rates” value (rat I7 odorant receptor [1]; infection judged by extent of GFP fluorescence) was “comparably smaller”, the “average EOG response in infected vs. uninfected animals” value (rat I7 odorant receptor [1]; normalized to amyl acetate, comparatively high odorant concentrations near saturation) was 1.7 times and the “change of EOG odorant response” value (rat I7 odorant receptor [1]) was “dramatically greater; also recorded: increased odorant response”.
`CCCCC/C=C/C=O` [trans-2-octenal] was tested, and the “change of EOG odorant response” value (rat I7 odorant receptor [1]) was “failed to elicit responses larger than in normal animals”.
With `CCCCCCCCCCC=O` [undecylic aldehyde] the “change of EOG odorant response” value (rat I7 odorant receptor [1]) was “not”.
